Data from patent US20220324835A1 (Nurix Therapeutics, Inc., priority 2018, published 2022).

What was measured:
Assay type in all cases: cell-based
[1] = tested on: primary human total T-cells; assay: T-cell activation assessed by cell proliferation (Cell Trace Violet)
Summary of the method: (§1)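 Primary human T-cells (>95% CD3+, negative selection from PBMC) were pre-incubated with inhibitor (e.g. 10, 1.11, 0.123 μM; DMSO <0.1%) for 1 h at 37 °C. They were then stimulated 48 h with plate-bound OKT3 (coated at 10 μg/mL), alone or with 5 μg/mL soluble anti-CD28. Results are fold change over uninhibited, identically stimulated cells.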

[2] = tested on: primary human total T-cells; assay: T-cell activation assessed by cytokine secretion (GM-CSF, IFNγ, TNFα)
Summary of the method: as §1

[3] = tested on: primary human total T-cells; assay: T-cell activation assessed by CD69 expression
Summary of the method: as §1

[4] = CD3/CD28 stimulation, CD4 T-cells, read-out: % CP (cell proliferation) (CD4)
[5] = CD3/CD28 stimulation, CD8 T-cells, read-out: % CP (cell proliferation) (CD8)
[6] = CD3 alone stimulation, CD8 T-cells, read-out: % CP (cell proliferation) (CD8)
[7] = CD3/CD28 stimulation, read-out: GM-CSF secretion
[8] = CD3/CD28 stimulation, read-out: IFNγ secretion
[9] = CD3/CD28 stimulation, read-out: TNFα secretion
[10] = CD3 alone stimulation, read-out: GM-CSF secretion
[11] = CD3 alone stimulation, read-out: IFNγ secretion
[12] = CD3 alone stimulation, read-out: TNFα secretion
[13] = CD3/CD28 stimulation, CD4 T-cells, read-out: % CD69+ (CD4)
[14] = CD3/CD28 stimulation, CD8 T-cells, read-out: % CD69+ (CD8)
[15] = CD3 alone stimulation, CD4 T-cells, read-out: % CD69+ (CD4)
[16] = CD3 alone stimulation, CD8 T-cells, read-out: % CD69+ (CD8)

| Compound | fold induction at 1.11 µM [1, 4] | fold induction at 10 µM [1, 4] | fold induction at 1.11 µM [1, 5] | fold induction at 10 µM [1, 5] | fold induction at 1.11 µM [1, 6] | fold induction at 10 µM [1, 6] | fold induction at 1.11 µM [2, 7] | fold induction at 1.11 µM [2, 8] | fold induction at 1.11 µM [2, 9] | fold induction at 10 µM [2, 7] | fold induction at 10 µM [2, 8] | fold induction at 10 µM [2, 9] | fold induction at 1.11 µM [2, 10] | fold induction at 1.11 µM [2, 11] | fold induction at 1.11 µM [2, 12] | fold induction at 10 µM [2, 10] | fold induction at 10 µM [2, 11] | fold induction at 10 µM [2, 12] | fold induction at 1.11 µM [3, 13] | fold induction at 10 µM [3, 13] | other results |
| --- | --- | --- | --- | --- | --- | --- | --- | --- | --- | --- | --- | --- | --- | --- | --- | --- | --- | --- | --- | --- | --- |
| C[C@H](Cc1nncn1C)c1cccc(N2Cc3c(cc(CN4CC[C@](C)(O)C4)cc3C(F)(F)F)C2=O)c1 [Compound 398, 6-(((S)-3-hydroxy-3-methylpyrrolidin-1-yl)methyl)-2-(3-((R)-1-(4-methyl-4H-1,2,4-triazol-3-yl)propan-2-yl)phenyl)-4-(trifluoromethyl)isoindolin-1-one] | > 4 | > 4 | 3.01 to 4 | > 4 | > 4 | > 4 | 2.01 to 4 | 3.01 to 4 | 2.01 to 4 | > 4 | > 4 | 2.01 to 4 | 2.01 to 4 | < 2 | ≤ 1.5 | > 4 | < 2 | 2.01 to 4 | 1.4 to 1.6 | 1.4 to 1.6 | fold induction at 1.11 µM [3, 14]: 1.2 to 1.4; fold induction at 10 µM [3, 14]: 1.2 to 1.4; fold induction at 1.11 µM [3, 15]: > 1.6; fold induction at 10 µM [3, 15]: > 1.6; fold induction at 1.11 µM [3, 16]: 1.2 to 1.4; fold induction at 10 µM [3, 16]: 1.4 to 1.6 |
| C[C@H](Cc1nncn1C)c1cccc(N2Cc3c(cc(CN4CC[C@H](F)C4)cc3C(F)(F)F)C2=O)c1 [Compound 399, 6-(((S)-3-fluoropyrrolidin-1-yl)methyl)-2-(3-((R)-1-(4-methyl-4H-1,2,4-triazol-3-yl)propan-2-yl)phenyl)-4-(trifluoromethyl)isoindolin-1-one] | > 4 | > 4 | > 4 | > 4 | > 4 | > 4 | > 4 | > 4 | 2.01 to 4 | > 4 | > 4 | 2.01 to 4 | 2.01 to 4 | 3.01 to 4 | 2.01 to 4 | > 4 | > 4 | 1.51 to 2 | > 1.6 | > 1.6 | fold induction at 1.11 µM [3, 14]: 1.2 to 1.4; fold induction at 10 µM [3, 14]: 1.2 to 1.4; fold induction at 1.11 µM [3, 15]: > 1.6; fold induction at 10 µM [3, 15]: > 1.6; fold induction at 1.11 µM [3, 16]: 1.4 to 1.6; fold induction at 10 µM [3, 16]: 1.4 to 1.6 |
| C[C@@H](c1cc2c(c(C(F)(F)F)c1)CN(c1cccc(C3(Cc4nncn4C)COC3)c1)C2=O)N1CC[C@H](F)C1 [Compound 412, 6-((S)-1-((S)-3-fluoropyrrolidin-1-yl)ethyl)-2-(3-(3-((4-methyl-4H-1,2,4-triazol-3-yl)methyl)oxetan-3-yl)phenyl)-4-(trifluoromethyl)isoindolin-1-one] | > 4 | > 4 | > 4 | > 4 | > 4 | > 4 | > 4 | > 4 | 2.01 to 4 | > 4 | > 4 | > 4 | > 4 | 3.01 to 4 | 1.51 to 2 | > 4 | > 4 | 2.01 to 4 | 1.4 to 1.6 | 1.4 to 1.6 | fold induction at 1.11 µM [3, 14]: 1.2 to 1.4; fold induction at 10 µM [3, 14]: 1.2 to 1.4; fold induction at 1.11 µM [3, 15]: > 1.6; fold induction at 10 µM [3, 15]: > 1.6; fold induction at 1.11 µM [3, 16]: 1.4 to 1.6; fold induction at 10 µM [3, 16]: 1.4 to 1.6 |
| C[C@H](c1cc2c(c(C(F)(F)F)c1)CN(c1cccc(C3(Cc4nncn4C)COC3)c1)C2=O)N1CC[C@H](F)C1 [Compound 413, 6-((R)-1-((S)-3-fluoropyrrolidin-1-yl)ethyl)-2-(3-(3-((4-methyl-4H-1,2,4-triazol-3-yl)methyl)oxetan-3-yl)phenyl)-4-(trifluoromethyl)isoindolin-1-one] | > 4 | > 4 | 3.01 to 4 | > 4 | 3.01 to 4 | > 4 | 2.01 to 4 | < 2 | 2.01 to 4 | > 4 | 3.01 to 4 | 2.01 to 4 | 1.51 to 2 | 2.01 to 3 | 1.51 to 2 | 2.01 to 4 | > 4 | 1.51 to 2 | 1.4 to 1.6 | > 1.6 | fold induction at 1.11 µM [3, 14]: 1.2 to 1.4; fold induction at 10 µM [3, 14]: 1.2 to 1.4; fold induction at 1.11 µM [3, 15]: 1.4 to 1.6; fold induction at 10 µM [3, 15]: > 1.6; fold induction at 1.11 µM [3, 16]: 1.2 to 1.4; fold induction at 10 µM [3, 16]: 1.4 to 1.6 |
| Cn1cnnc1CC1(c2cccc(N3Cc4c(cc(CN5CC(F)C5)cc4C(F)(F)F)C3=O)c2)COC1 [Compound 415, 6-((3-fluoroazetidin-1-yl)methyl)-2-(3-(3-((4-methyl-4H-1,2,4-triazol-3-yl)methyl)oxetan-3-yl)phenyl)-4-(trifluoromethyl)isoindolin-1-one] | > 4 | > 4 | 3.01 to 4 | > 4 | > 4 | > 4 | 2.01 to 4 | 3.01 to 4 | 2.01 to 4 | > 4 | > 4 | 2.01 to 4 | 2.01 to 4 | 2.01 to 3 | 1.51 to 2 | > 4 | > 4 | 1.51 to 2 | 1.2 to 1.4 | 1.4 to 1.6 | fold induction at 1.11 µM [3, 14]: 1.2 to 1.4; fold induction at 10 µM [3, 14]: 1.2 to 1.4; fold induction at 1.11 µM [3, 15]: > 1.6; fold induction at 10 µM [3, 15]: > 1.6; fold induction at 1.11 µM [3, 16]: 1.2 to 1.4; fold induction at 10 µM [3, 16]: 1.4 to 1.6 |
